# Source: ChEMBL document CHEMBL1201862, “PubChem BioAssay data set” (2004)
#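 1) Cells in 96-well plates. 2) Compound, 48 h, 5 concentrations. 3) Linear interpolation between surrounding doses. 4) Unreached endpoint = highest concentration. At the GI50, growth is halved.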 Calls of active or inactive are those of the source. No stated cut-off is given here; in the data, active = GI50 up to about 1.1 µM and inactive = higher.
# Tests used:
# Experiment in all cases: DTP human tumour cell line panel, 48 h
# SNB-75 = tested on: SNB-75
# MDA-MB-231 = tested on: MDA-MB-231
# HOP-62 = tested on: HOP-62
# SN12C = tested on: SN12C
# OVCAR-4 = tested on: OVCAR-4
# OVCAR-5 = tested on: OVCAR-5
# HOP-92 = tested on: HOP-92
# NCI-H23 = tested on: NCI-H23
# MOLT-4 = tested on: MOLT-4
# RXF 393 = tested on: RXF 393
# MDA-N = tested on: MDA-N
# SF-539 = tested on: SF-539
# UACC-62 = tested on: UACC-62
# HCC 2998 = tested on: HCC 2998
# BT-549 = tested on: BT-549
# CAKI-1 = tested on: CAKI-1
# TK-10 = tested on: TK-10
# OVCAR-8 = tested on: OVCAR-8
# COLO 205 = tested on: COLO 205
# CCRF-CEM = tested on: CCRF-CEM
# IGROV-1 = tested on: IGROV-1
# HL-60 = tested on: HL-60
# NCI-H460 = tested on: NCI-H460
# SK-OV-3 = tested on: SK-OV-3
# SR = tested on: SR
# LOX IMVI = tested on: LOX IMVI
# NCI/ADR-RES = tested on: NCI/ADR-RES
# MCF7 = tested on: MCF7
# U-251 = tested on: U-251
# UO-31 = tested on: UO-31
# 786-0 = tested on: 786-0
# NCI-H226 = tested on: NCI-H226
# K562 = tested on: K562
# ACHN = tested on: ACHN
# MDA-MB-435 = tested on: MDA-MB-435
# EKVX = tested on: EKVX
# OVCAR-3 = tested on: OVCAR-3
# SK-MEL-5 = tested on: SK-MEL-5
# M14 = tested on: M14
# KM12 = tested on: KM12
# HT-29 = tested on: HT-29
# A498 = tested on: A498
# Malme-3M = tested on: Malme-3M
# SK-MEL-2 = tested on: SK-MEL-2
# SF-268 = tested on: SF-268
# SNB-19 = tested on: SNB-19
# RPMI-8226 = tested on: RPMI-8226
# HCT-15 = tested on: HCT-15
# NCI-H522 = tested on: NCI-H522
# SW-620 = tested on: SW-620
# Hs-578T = tested on: Hs-578T
# T47D = tested on: T47D
# PC-3 = tested on: PC-3
# SF-295 = tested on: SF-295
# UACC-257 = tested on: UACC-257
# DU-145 = tested on: DU-145
# HCT-116 = tested on: HCT-116
# A549 = tested on: A549
# SK-MEL-28 = tested on: SK-MEL-28
smiles,measurement,setting,value
CCCCc1ccc(Nc2nc3c(ncn3COCCBr)c(=O)[nH]2)cc1,GI50,SNB-75,> 100 µM (inactive)
same,GI50,MDA-MB-231,> 100 µM (inactive)
same,GI50,HOP-62,> 100 µM (inactive)
same,GI50,SN12C,> 100 µM (inactive)
same,GI50,OVCAR-4,> 100 µM (inactive)
same,GI50,OVCAR-5,> 100 µM (inactive)
same,GI50,HOP-92,> 100 µM (inactive)
same,GI50,NCI-H23,> 100 µM (inactive)
same,GI50,MOLT-4,> 100 µM (inactive)
same,GI50,RXF 393,84.5 µM (inactive)
same,GI50,MDA-N,> 100 µM (inactive)
same,GI50,SF-539,> 100 µM (inactive)
same,GI50,UACC-62,> 100 µM (inactive)
same,GI50,HCC 2998,> 100 µM (inactive)
same,GI50,BT-549,> 100 µM (inactive)
same,GI50,CAKI-1,> 100 µM (inactive)
same,GI50,TK-10,> 100 µM (inactive)
same,GI50,OVCAR-8,> 100 µM (inactive)
same,GI50,COLO 205,> 100 µM (inactive)
same,GI50,CCRF-CEM,> 100 µM (inactive)
same,GI50,IGROV-1,> 100 µM (inactive)
same,GI50,HL-60,> 100 µM (inactive)
same,GI50,NCI-H460,> 100 µM (inactive)
same,GI50,SK-OV-3,> 100 µM (inactive)
same,GI50,SR,86.3 µM (inactive)
same,GI50,LOX IMVI,> 100 µM (inactive)
same,GI50,NCI/ADR-RES,> 100 µM (inactive)
same,GI50,MCF7,> 100 µM (inactive)
same,GI50,U-251,> 100 µM (inactive)
same,GI50,UO-31,> 100 µM (inactive)
same,GI50,786-0,> 100 µM (inactive)
same,GI50,NCI-H226,> 100 µM (inactive)
same,GI50,K562,> 100 µM (inactive)
same,GI50,ACHN,> 100 µM (inactive)
same,GI50,MDA-MB-435,> 100 µM (inactive)
same,GI50,EKVX,> 100 µM (inactive)
same,GI50,OVCAR-3,> 100 µM (inactive)
same,GI50,SK-MEL-5,> 100 µM (inactive)
same,GI50,M14,> 100 µM (inactive)
same,GI50,KM12,> 100 µM (inactive)
same,GI50,HT-29,> 100 µM (inactive)
same,GI50,A498,> 100 µM (inactive)
same,GI50,Malme-3M,> 100 µM (inactive)
same,GI50,SK-MEL-2,> 100 µM (inactive)
same,GI50,SF-268,> 100 µM (inactive)
same,GI50,SNB-19,> 100 µM (inactive)
same,GI50,RPMI-8226,> 100 µM (inactive)
same,GI50,HCT-15,> 100 µM
same,GI50,NCI-H522,> 100 µM (inactive)
same,GI50,SW-620,> 100 µM (inactive)
same,GI50,Hs-578T,> 100 µM (inactive)
same,GI50,T47D,40.1 µM (inactive)
same,GI50,PC-3,> 100 µM (inactive)
same,GI50,SF-295,> 100 µM (inactive)
same,GI50,UACC-257,> 100 µM (inactive)
same,GI50,DU-145,> 100 µM (inactive)
same,GI50,HCT-116,> 100 µM (inactive)
same,GI50,A549,> 100 µM (inactive)
N=c1oc2c(Cl)cc(Cl)cc2cc1C(=O)Nc1cccc2ccccc12,GI50,SNB-75,3.2 µM (inactive)
same,GI50,MDA-MB-231,3.78 µM (inactive)
same,GI50,HOP-62,7.98 µM (inactive)
same,GI50,SN12C,3.58 µM (inactive)
same,GI50,OVCAR-4,2.49 µM (inactive)
same,GI50,OVCAR-5,21.7 µM (inactive)
same,GI50,HOP-92,15.3 µM (inactive)
same,GI50,NCI-H23,16.5 µM (inactive)
same,GI50,MOLT-4,7.48 µM (inactive)
same,GI50,RXF 393,16.7 µM (inactive)
same,GI50,MDA-N,33 µM (inactive)
same,GI50,UACC-62,40.6 µM (inactive)
same,GI50,HCC 2998,6.93 µM (inactive)
same,GI50,BT-549,30.1 µM (inactive)
same,GI50,CAKI-1,10.6 µM (inactive)
same,GI50,TK-10,2.33 µM (inactive)
same,GI50,OVCAR-8,3.44 µM (inactive)
same,GI50,COLO 205,7.57 µM (inactive)
same,GI50,CCRF-CEM,3.57 µM (inactive)
same,GI50,IGROV-1,5.32 µM (inactive)
same,GI50,HL-60,18.8 µM (inactive)
same,GI50,NCI-H460,5.01 µM (inactive)
same,GI50,SK-OV-3,15.9 µM (inactive)
same,GI50,SR,12.4 µM (inactive)
same,GI50,LOX IMVI,4.7 µM (inactive)
same,GI50,NCI/ADR-RES,4.93 µM (inactive)
same,GI50,MCF7,> 53.6 µM (inactive)
same,GI50,U-251,2.73 µM (inactive)
same,GI50,UO-31,10.2 µM (inactive)
same,GI50,786-0,5.71 µM (inactive)
same,GI50,NCI-H226,19.3 µM (inactive)
same,GI50,K562,13.3 µM (inactive)
same,GI50,ACHN,3.52 µM (inactive)
same,GI50,MDA-MB-435,27 µM (inactive)
same,GI50,EKVX,8.93 µM (inactive)
same,GI50,OVCAR-3,4.61 µM (inactive)
same,GI50,SK-MEL-5,37.9 µM (inactive)
same,GI50,M14,> 44.7 µM (inactive)
same,GI50,KM12,53.8 µM (inactive)
same,GI50,HT-29,39.4 µM (inactive)
same,GI50,A498,7.62 µM (inactive)
same,GI50,Malme-3M,26.3 µM (inactive)
same,GI50,SF-268,18 µM (inactive)
same,GI50,SNB-19,19.5 µM (inactive)
same,GI50,RPMI-8226,10 µM (inactive)
same,GI50,HCT-15,10.3 µM
same,GI50,NCI-H522,8.17 µM (inactive)
same,GI50,SW-620,3.62 µM (inactive)
same,GI50,Hs-578T,7.94 µM (inactive)
same,GI50,T47D,5.2 µM (inactive)
same,GI50,PC-3,24.2 µM (inactive)
same,GI50,SK-MEL-28,> 80.9 µM (inactive)
same,GI50,SF-295,18.7 µM (inactive)
same,GI50,UACC-257,> 100 µM (inactive)
same,GI50,DU-145,> 89.9 µM (inactive)
same,GI50,HCT-116,4.79 µM (inactive)
same,GI50,A549,6.55 µM (inactive)
O=C/C=C/c1ccco1,GI50,SNB-75,> 100 µM (inactive)
same,GI50,MDA-MB-231,> 100 µM (inactive)
same,GI50,HOP-62,> 100 µM (inactive)
same,GI50,SN12C,> 100 µM (inactive)
same,GI50,OVCAR-4,> 100 µM (inactive)
same,GI50,OVCAR-5,> 100 µM (inactive)
same,GI50,HOP-92,> 100 µM (inactive)
same,GI50,NCI-H23,> 100 µM (inactive)
same,GI50,MOLT-4,> 100 µM (inactive)
same,GI50,RXF 393,> 100 µM (inactive)
same,GI50,MDA-N,> 100 µM (inactive)
same,GI50,SF-539,94.8 µM (inactive)
same,GI50,UACC-62,> 100 µM (inactive)
same,GI50,HCC 2998,> 100 µM (inactive)
same,GI50,BT-549,> 100 µM (inactive)
same,GI50,CAKI-1,> 100 µM (inactive)
same,GI50,TK-10,> 100 µM (inactive)
same,GI50,OVCAR-8,> 100 µM (inactive)
same,GI50,COLO 205,> 100 µM (inactive)
same,GI50,CCRF-CEM,9.48 µM (inactive)
same,GI50,IGROV-1,> 100 µM (inactive)
same,GI50,HL-60,5.56 µM (inactive)
same,GI50,SK-OV-3,> 100 µM (inactive)
same,GI50,SR,31.3 µM (inactive)
same,GI50,LOX IMVI,> 100 µM (inactive)
same,GI50,NCI/ADR-RES,> 100 µM (inactive)
same,GI50,MCF7,> 100 µM (inactive)
same,GI50,U-251,96.8 µM (inactive)
same,GI50,UO-31,> 100 µM (inactive)
same,GI50,786-0,> 100 µM (inactive)
same,GI50,NCI-H226,> 100 µM (inactive)
same,GI50,K562,> 100 µM (inactive)
same,GI50,ACHN,> 100 µM (inactive)
same,GI50,MDA-MB-435,> 100 µM (inactive)
same,GI50,EKVX,> 100 µM (inactive)
same,GI50,OVCAR-3,> 100 µM (inactive)
same,GI50,SK-MEL-5,> 100 µM (inactive)
same,GI50,M14,> 100 µM (inactive)
same,GI50,KM12,> 100 µM (inactive)
same,GI50,HT-29,> 100 µM (inactive)
same,GI50,A498,> 100 µM (inactive)
same,GI50,Malme-3M,> 100 µM (inactive)
same,GI50,SK-MEL-2,> 100 µM (inactive)
same,GI50,SF-268,> 100 µM (inactive)
same,GI50,SNB-19,> 100 µM (inactive)
same,GI50,RPMI-8226,> 100 µM (inactive)
same,GI50,HCT-15,> 100 µM
same,GI50,NCI-H522,> 100 µM (inactive)
same,GI50,SW-620,> 100 µM (inactive)
same,GI50,Hs-578T,> 100 µM (inactive)
same,GI50,T47D,> 100 µM (inactive)
same,GI50,PC-3,> 100 µM (inactive)
same,GI50,SK-MEL-28,> 100 µM (inactive)
same,GI50,SF-295,61.8 µM (inactive)
same,GI50,UACC-257,> 100 µM (inactive)
same,GI50,DU-145,> 100 µM (inactive)
same,GI50,HCT-116,> 100 µM (inactive)
same,GI50,A549,> 100 µM (inactive)
